According to patent US7527792B1, “Pharmaceutical composition comprising an anti-cancer and at least a peptide” (Synt : EM, priority 1998, dated 2009):
pIC50: −log10 of the molar value. Several values for one entry are separate records, joined by “and”; a condition that tells them apart may be missing. Equal values may be shown once. Read-outs that look alike come from different tables or passages of the source. Numbered stars: 1 amine (or outer) side, 2 acyl side, 3 side chain; on linkers, the order of the positions; unused ones are H or OH. Peptide text beside a SMILES is read from it. * marks the point of attachment. X1 = COc1cccc2c1C(=O)c1c(O)c3c(c(O)c1C2=O)C[C@@](O)(C(=O)CO)C[C@@H]3O[C@H]1C[C@H](NC(=O)CCN2C(=O)CC(*)C2=O)[C@H](O)[C@H](C)O1; Doxorubicin(3'-N) = COc1cccc2c1C(=O)c1c(O)c3c(c(O)c1C2=O)C[C@@](O)(C(=O)CO)C[C@@H]3O[C@H]1C[C@H](N*)[C@H](O)[C@H](C)O1; Suc = O=C(CCC(=O)[*:2])[*:1]

How the values were obtained:
Type in all cases: cell-based, human
resistant K562/ADR cells [1] = assay: Cytotoxicity, MTT test, resistant line; conditions: for F. Rev (reversion factor): K562/ADR, effect of the vector on susceptibility, free doxo versus compound; for F. Res (resistance factor): ratio of IC50 values, resistant line K562/ADR versus susceptible K562
Method: (§1) The susceptible K562 chronic myeloid leukaemia cells, resistant K562/ADR cells and HL60/R10 promyeloid leukaemia cells are of human origin and were obtained commercially from the ATCC. The cells are inoculated at a rate of approximately 10^4 cells per well, 24 hours before adding the products. The cells are kept in culture at 37° C. in an atmosphere at 95% humidity and 5% CO2 in an OptiMem medium.
[…] At the end of the culture period, MTT (3-(4,5-dimethylthiazole-2-yl)-2,5-diphenyltetrazolium bromide) is added into the wells and the culture plates are then incubated for 4 hours in the incubator. The resulting crystalline formazan deposit is then dissolved by adding 200 μl of DMF/SDS. The optical density (OD) is measured at 550 nm (reference 630 nm) using a microplate reader.
(§2) The graphic representation of the OD percentages of the wells treated as a function of the concentration of products is used to determine the IC50 which corresponds to the concentration of product that inhibits 50% of growth.
The IC50 values are used to quantify the resistance factor (F. Res) of the resistant lines using the following ratio:
The reversion factor (F. Rev) corresponds to the effect of a modulator (the vector) on the susceptibility of the cells to the anti-tumour agents according to the following ratio:
The susceptibility of the cells to anti-tumour agents was measured using the MTT test under the experimental conditions defined above wherein the relationship between the optical density and the number of viable cells is linear.

[2] = system: HL60/R10 promyeloid leukaemia cells; assay: Cytotoxicity, MTT test, HL60/R10
Method: as §1
The susceptible K562 cells and resistant K562/ADR cells are incubated either with free doxorubicin or with doxorubicin in a vector at increasing concentrations after 48 hours in culture in the presence of the products. At the end of the culture period, MTT (3-(4,5-dimethylthiazole-2-yl)-2,5-diphenyltetrazolium bromide) is added into the wells and the culture plates are then incubated for 4 hours in the incubator. The resulting crystalline formazan deposit is then dissolved by adding 200 μl of DMF/SDS. The optical density (OD) is measured at 550 nm (reference 630 nm) using a microplate reader.
as §2
The reversion factor (F. Rev) corresponds to the effect of a modulator (the vector) on the susceptibility of the cells to the anti-tumour agents according to the following ratio: […]

resistant K562/ADR cells [3] = assay: Internalisation by flow cytometry; conditions: 3 μM, 30 min incubation at 37° C.
Method: as §1
The susceptible K562 cells and resistant K562/ADR cells are incubated either with free doxorubicin or with doxorubicin in a vector at a concentration of 3 μM. After 30 minutes of incubation at 37° C., the cells are washed three times with PBS. The internalisation of the products is then analysed by flow cytometry. The samples are analysed with a flow cytometer equipped with a 15 mA argon laser. The fluorescence emitted is recorded on a logarithmic scale at (575 NM) nm after an excitation at (488) nm. The fluorescence is measured on 10,000 cells selected according to the […] parameters. The results are expressed as a percentage of positive cells of the fluorescence intensity logarithm. The results are analysed using the software program Cell Quest.
The susceptible K562 cells and resistant K562/ADR cells are incubated either with free doxorubicin or with doxorubicin in the vector. After 30 min of incubation, the internalisation of the products is measured by flow cytometry.

[4] = system: susceptible K562 chronic myeloid leukaemia cells; assay: Cytotoxicity, MTT test, susceptible line; conditions: 8 μM, 24 hours incubation

SMILES | F. Rev (reversion factor) (resistant K562/ADR cells [1]) | F. Res (resistance factor) (resistant K562/ADR cells [1]) | other results
COc1cccc2c1C(=O)c1c(O)c3c(c(O)c1C2=O)C[C@@](O)(C(=O)CO)C[C@@H]3O[C@H]1C[C@H](NC(=O)CCC(=O)N[C@@H](CCCNC(=N)N)C(=O)NCC(=O)NCC(=O)N[C@@H](CCCNC(=N)N)C(=O)N[C@@H](CC(C)C)C(=O)N[C@@H](CO)C(=O)N[C@@H](Cc2ccc(O)cc2)C(=O)N[C@@H](CO)C(=O)N[C@@H](CCCNC(=N)N)C(=O)N[C@@H](CCCNC(=N)N)C(=O)N[C@@H](CCCNC(=N)N)C(=O)N[C@@H](Cc2ccccc2)C(=O)N[C@@H](CO)C(=O)N[C@H](C(=O)N[C@@H](CO)C(=O)N[C@H](C(=O)NCC(=O)N[C@@H](CCCNC(=N)N)C(=O)O)[C@@H](C)O)[C@@H](C)O)[C@H](O)[C@H](C)O1 [Compound 1, doxo-CO-(CH2)2-CO-RGGRLSYSRRRFSTSTGR] ({Doxorubicin(3'-N)-Suc}-RGGRLSYSRRRFSTSTGR-OH; N-terminus and C-terminus assumed) | 2.5 | 0.7 | –
COc1cccc2c1C(=O)c1c(O)c3c(c(O)c1C2=O)C[C@@](O)(C(=O)CO)C[C@@H]3O[C@H]1C[C@H](NC(=O)CCC(=O)N[C@@H](CCCNC(=N)N)C(=O)NCC(=O)NCC(=O)N[C@@H](CCCNC(=N)N)C(=O)N[C@@H](CC(C)C)C(=O)N[C@@H](CO)C(=O)N[C@@H](Cc2ccc(O)cc2)C(=O)N[C@@H](CO)C(=O)N[C@@H](CCCNC(=N)N)C(=O)N[C@@H](CCCNC(=N)N)C(=O)N[C@@H](CCCNC(=N)N)C(=O)N[C@@H](Cc2ccccc2)C(=O)N[C@@H](CO)C(=O)N[C@H](C(=O)N[C@@H](CO)C(=O)N[C@H](C(=O)NCC(=O)N[C@@H](CCCNC(=N)N)C(=O)O)C(C)C)C(C)C)[C@H](O)[C@H](C)O1 [Compound 2, doxo-CO-(CH2)2-CO-RGGRLSYSRRRFSVSVGR] ({Doxorubicin(3'-N)-Suc}-RGGRLSYSRRRFSVSVGR-OH; N-terminus and C-terminus assumed) | 5 | 0.9 | pIC50 (resistant K562/ADR cells [1]; FIG. 5 experiment, linked versus not linked with peptide, cell line not given, resistant cells implied, read-out: IC50): 4.72; F. Rev ([2]; HL60/R10): 1.6
CC[C@H](C)[C@H](NC(=O)CNC(=O)[C@H](CCCNC(=N)N)NC(=O)[C@H](Cc1ccc(O)cc1)NC(=O)[C@H](CO)NC(=O)[C@@H](NC(=O)[C@H](CCCNC(=N)N)NC(=O)[C@H](Cc1ccccc1)NC(=O)[C@H](CO)NC(=O)[C@H](Cc1c[nH]c2ccccc12)NC(=O)[C@H](CCCCN)NC(=O)CCC(=O)N[C@H]1C[C@H](O[C@H]2C[C@](O)(C(=O)CO)Cc3c(O)c4c(c(O)c32)C(=O)c2c(OC)cccc2C4=O)O[C@@H](C)[C@H]1O)C(C)C)C(=O)N[C@@H](CO)C(=O)N[C@@H](Cc1ccc(O)cc1)C(=O)N[C@@H](CCCNC(=N)N)C(=O)N[C@@H](CCCNC(=N)N)C(=O)N[C@@H](CO)C(=O)N[C@@H](CCCNC(=N)N)C(=O)O [Compound 3, doxo-CO-(CH2)2-CO-KWSFRVSYRGISYRRSR] ({Doxorubicin(3'-N)-Suc}-KWSFRVSYRGISYRRSR-OH; N-terminus and C-terminus assumed) | 43 | 0.8 | –
COc1cccc2c1C(=O)c1c(O)c3c(c(O)c1C2=O)C[C@@](O)(C(=O)CO)C[C@@H]3O[C@H]1C[C@H](NC(=O)CCC(=O)N[C@@H](CCCNC(=N)N)C(=O)N[C@@H](CCCNC(=N)N)C(=O)N[C@@H](CC(C)C)C(=O)N[C@@H](CO)C(=O)N[C@@H](Cc2ccc(O)cc2)C(=O)N[C@@H](CO)C(=O)N[C@@H](CCCNC(=N)N)C(=O)N[C@@H](CCCNC(=N)N)C(=O)N[C@@H](CCCNC(=N)N)C(=O)N[C@@H](Cc2ccccc2)C(=O)O)[C@H](O)[C@H](C)O1 [Compound 4, doxo-CO-(CH2)2-CO-RRLSYSRRRF] ({Doxorubicin(3'-N)-Suc}-RRLSYSRRRF-OH; N-terminus and C-terminus assumed) | 2.8 | 1 | –
CC[C@@H](C)[C@@H](NC(=O)[C@@H](CCCCN)NC(=O)[C@H](NC(=O)[C@@H](CCC(N)=O)NC(=O)[C@@H](CCCNC(=N)N)NC(=O)CCSC1CC(=O)N(CCC(=O)N[C@H]2C[C@H](O[C@H]3C[C@](O)(C(=O)CO)Cc4c(O)c5c(c(O)c43)C(=O)c3c(OC)cccc3C5=O)O[C@@H](C)[C@H]2O)C1=O)[C@H](C)CC)C(=O)N[C@H](Cc1c[nH]c2ccccc12)C(=O)N[C@H](Cc1ccccc1)C(=O)N[C@H](CCC(N)=O)C(=O)N[C@H](CC(N)=O)C(=O)N[C@H](CCCNC(=N)N)C(=O)N[C@H](CCCNC(=N)N)C(=O)N[C@H](CCSC)C(=O)N[C@H](CCCCN)C(=O)N[C@H](Cc1c[nH]c2ccccc12)C(=O)N[C@H](CCCCN)C(=O)N[C@H](CCCCN)C(=O)O (some centres unmarked) [Compound 5, doxo-SMP-3MP-rqikiwfgnrrmkwkk] | 35 | 1.3 | pIC50 (resistant K562/ADR cells [1]; resistant line K562/ADR, MTT, 50% growth inhibition, read-out: IC50 K562/ADR): 5.70; percentage of positive cells (internalisation) (resistant K562/ADR cells [3]): 98%
CC[C@H](C)[C@H](NC(=O)[C@H](CCCCN)NC(=O)[C@@H](NC(=O)[C@H](CC(N)=O)NC(=O)[C@H](CCC(=O)O)NC(=O)[C@@H](N)CSC1CC(=O)N(CCC(=O)N[C@H]2C[C@H](O[C@H]3C[C@](O)(C(=O)CO)Cc4c(O)c5c(c(O)c43)C(=O)c3c(OC)cccc3C5=O)O[C@@H](C)[C@H]2O)C1=O)[C@@H](C)CC)C(=O)N[C@@H](Cc1c[nH]c2ccccc12)C(=O)N[C@@H](CC(C)C)C(=O)N[C@@H](CO)C(=O)N[C@@H](CC(C)C)C(=O)N[C@@H](CCCNC(=N)N)C(=O)N[C@@H](CO)C(=O)N[C@@H](Cc1ccc(O)cc1)C(=O)N[C@@H](CC(C)C)C(=O)N[C@@H](CCCCN)C(=O)N[C@@H](CCCNC(=N)N)C(=O)N[C@@H](CCCNC(=N)N)C(=O)O (some centres unmarked) [Compound 6, doxo-SMP-CENIKIWLSLRSYLKRR] (H-C(X1)ENIKIWLSLRSYLKRR-OH; N-terminus and C-terminus assumed) | 12.8 | 1.1 | –
COc1cccc2c1C(=O)c1c(O)c3c(c(O)c1C2=O)C[C@@](O)(C(=O)CO)C[C@@H]3O[C@H]1C[C@H](NC(=O)CCC(=O)N[C@@H](CCCNC(=N)N)C(=O)NCC(=O)NCC(=O)N[C@@H](CCCNC(=N)N)C(=O)N[C@@H](CC(C)C)C(=O)N[C@@H](C)C(=O)N[C@@H](Cc2ccc(O)cc2)C(=O)N[C@@H](CC(C)C)C(=O)N[C@@H](CCCNC(=N)N)C(=O)N[C@@H](CCCNC(=N)N)C(=O)N[C@@H](CCCNC(=N)N)C(=O)N[C@@H](Cc2c[nH]c3ccccc23)C(=O)N[C@@H](C)C(=O)N[C@H](C(=O)N[C@@H](CC(C)C)C(=O)N[C@H](C(=O)NCC(=O)N[C@@H](CCCNC(=N)N)C(=O)O)C(C)C)C(C)C)[C@H](O)[C@H](C)O1 [Compound 7, doxo-CO-(CH2)2-CO-RGGRLAYLRRRWAVLVGR] ({Doxorubicin(3'-N)-Suc}-RGGRLAYLRRRWAVLVGR-OH; N-terminus and C-terminus assumed) | >26 | 0.85 | –
COc1cccc2c1C(=O)c1c(O)c3c(c(O)c1C2=O)C[C@@](O)(C(=O)CO)C[C@@H]3O[C@H]1C[C@H](N)[C@H](O)[C@H](C)O1 [Free Doxo, doxorubicin, reference compound] | – | – | survival of the cells [4]: 15%; survival of the cells (resistant K562/ADR cells [1]; K562/ADR resistant cells, 8 μM, 24 hours incubation, MTT): 100%; pIC50 (resistant K562/ADR cells [1]; resistant line K562/ADR, MTT, 50% growth inhibition, listed as free doxorubicin, read-out: IC50 K562/ADR): 4.15; percentage of positive cells (internalisation) (resistant K562/ADR cells [3]; listed as free doxorubicin): 5.86% and 5.68%; pIC50 ([2]; Homo sapiens, HL-60, HL60/R10 doxorubicin-resistant cells, MTT): 4.40
